Experimental data from patent US12171856B2, “Use of salidroside derivative in external preparation for skin whitening” (SHANGHAI CHEERMORE BIOLOGICAL TECHNOLOGY CO., LTD, priority 2019, dated 2024).

Key:
Human melanocytes = assay: Inhibition of NGF/UV-induced melanin generation in human melanocytes (absorbance at 490 nm); type: cell-based; conditions: 60 h
Protocol: (§1) Human melanocytes and tool melanocytes were used to conduct the experiment in this section. Human melanocytes and tool melanocytes were inoculated in a 96-well plate, with a plating density of 5,000 cells/well. After the cells adhered to a wall, nerve growth factor (NGF) was added to the culture and the culture was irradiated with UV to induce the generation of melanin, which simulated a melanin generation process in vivo. Then β-D-glucoside derivatives to be tested each were added at a final concentration of 100 μM to the cells, and the cells were further cultivated in an incubator at 37° C. and 5% CO2 for 60 h, where 3 replicates were set for each group. The cells were washed with pre-cooled phosphate buffered saline (PBS), then digested with trypsin, and centrifuged, and a resulting supernatant was discarded. The cells were lysed with a NaOH (1 mol/L) solution including 10% dimethyl sulfoxide (DMSO) in a 65° C. water bath to make melanin granules completely dissolved out, and the absorbance at 490 nm was determined with a microplate reader. Finally, the absorbance value was used to reflect a melanin content.
Human melanocytes and tool melanocytes were used to conduct the experiment in this section. Human melanocytes and tool melanocytes were inoculated in a 96-well plate, with a plating density of 5,000 cells/well. After the cells adhered to a wall, NGF was added to the culture and the culture was irradiated with UV to induce the generation of melanin, which simulated a melanin generation process in vivo. SP-037 was added to the cells at 6 concentrations of 0 μM, 12.5 μM, 25 μM, 50 μM, 100 μM, and 200 μM, and then the cells were further cultivated in an incubator at 37° C. and 5% CO2 for 60 h, where 5 replicates were set for each group. The cells were washed with pre-cooled PBS, then digested with trypsin, and centrifuged, and a resulting supernatant was discarded. The cells were lysed with a NaOH (1 mol/L) solution including 10% DMSO in a 65° C. water bath to make melanin granules completely dissolved out, and the absorbance at 490 nm was determined with a microplate reader. Finally, the absorbance value was used to reflect a melanin content.
(§2) Human melanocytes and tool melanocytes were used to conduct the experiment in this section. Human melanocytes and tool melanocytes were inoculated in a 96-well plate, with a plating density of 5,000 cells/well. […] The cells were lysed with a NaOH (1 mol/L) solution including 10% DMSO in a 65° C. water bath to make melanin granules completely dissolved out, and the absorbance at 490 nm was determined with a microplate reader. Finally, the absorbance value was used to reflect a melanin content.

tool melanocytes = assay: Inhibition of NGF/UV-induced melanin generation in tool melanocytes (absorbance at 490 nm); type: cell-based; conditions: 60 h, FIG. 6
Protocol: as §1, with “The cells were washed with pre-cooled phosphate buffered saline (PBS), then digested with trypsin, and centrifuged, and a resulting supernatant was discarded.” left out
as §2, with “section.” for “section. Human melanocytes and tool melanocytes were inoculated in a 96-well plate, with a plating density of 5,000 cells/well.”, “content. […]” for “content.”

Kunming mice = assay: Long-term toxicity test on mouse skin; type: in vivo
Protocol: Kunming mice were used to conduct the experiment in this section. SP-037 was prepared into solutions with concentrations of 2.5% (mass to volume ratio), 5% (mass to volume ratio), and 10% (mass to volume ratio) using NS. A control group, a 2.5% dosage group, a 5% dosage group, and a 10% dosage group were set, separately. One mouse was used for the blank group, and two mice were used for each of the experimental groups. Application on the dorsal skin: the hair on the back of mice was removed by depilatory cream, and a drug was applied at a corresponding concentration on the bare skin every day, which lasted for 3 months. During the test period, pictures were taken and the body weight of mice were recorded regularly, and it was observed whether there were white spots and other skin irritation or poisoning phenomena.

[1] = test system: arm skin of the volunteers; assay: Human skin irritation test (patch test); type: in vivo; conditions: gel with 10% SP-037 in 2% sodium carboxymethyl cellulose
Protocol: In order to further achieve the use of SP-037 in the field of skin care, it is necessary to ensure the safety of SP-037 first. In the experiment of this section, a gel (2% sodium carboxymethyl cellulose prepared with deionized water) with the main component of 10% SP-037 was prepared, then volunteers were recruited, and a patch test was conducted on the arm skin of the volunteers to evaluate the safety of SP-037.

[2] = test system: skin at the inner side of the arm of volunteers with dark skin; assay: Skin whitening effect in volunteers (Dermalab skin color probe, melanin and L*a*b values); type: in vivo, human
Protocol: A total of 33 volunteers with dark skin were recruited, and the 33 volunteers were 22 to 38 years old. The 33 volunteers were randomly divided into 7 groups, including: a blank control group: 3, an SP-037 group: 5; a VC group: 5; a kojic acid group: 5; a thiamidol group: 5; a hydroquinone group: 5; and a 377 group: 5. A blank gel and gels with the main components of SP-037, VC, kojic acid, thiamidol, hydroquinone, and 377 respectively were prepared. An inner side of the left arm of each volunteer in each group was washed and then evenly applied with a corresponding gel every day, which lasted for 4 weeks. The Dermalab instrument was used to determine the characteristics of skin at the inner side of the arm with a skin color test probe on day 0, day 14, and day 28 to obtain melanin and L*a*b values, and according to final statistical data, the whitening effect of each component was analyzed.

SMILES: OC[C@H]1O[C@@H](OCCc2cc(O)cc(O)c2)[C@H](O)[C@@H](O)[C@@H]1O [SP-037]
- effect of SP-037 on a melanin content (Human melanocytes; 0-200 μM, human melanocytes and tool melanocytes (not separated in text), FIG. 5): can significantly inhibit the generation of melanin at a cellular level
- effects of β-D-glucoside derivatives on a melanin content (Human melanocytes; final concentration 100 μM, human melanocytes and tool melanocytes (not separated in text), FIG. 1): shows the optimal effect
- inhibitory activity on in vitro simulated melanin generation compared with whitening positive drugs (Human melanocytes; human melanocytes, FIG. 6): significantly better than that of the positive drugs VC, kojic acid, and hydroquinone
- concentration showing an ideal effect on melanin generation (Human melanocytes; tested at 12.5-200 μM, human melanocytes and tool melanocytes, FIG. 5): 50 µM
- inhibitory activity on melanin generation compared with whitening positive drugs (tool melanocytes): significantly better than that of VC and kojic acid, but slightly inferior to that of hydroquinone
- white spots, skin irritation injuries or poisoning symptoms (Kunming mice; 2.5%, 5%, 10% (mass to volume) in NS applied daily on dorsal skin): none of the mice has white spots, redness and swelling, and other skin irritation injuries, or poisoning symptoms
- changes in the body weight and skin condition (Kunming mice; 2.5%, 5%, 10% (mass to volume) in NS applied daily on dorsal skin, FIG. 7 and FIG. 8): in line with the growth pattern of normal mice
- white spots, skin irritation and toxicity (conclusion of long-term toxicity test) (Kunming mice; at a dosage of 10% (mass to volume ratio)): will not cause white spots, skin irritation, and toxicity
- irritating pain, itching felt by volunteers during patch test [1]: no irritating pain, itching, or the like
- sensitization to the skin (patch test) ([1]; FIG. 9): has no sensitization to the skin
- effect on melanin content in skin (skin melanin pigmentation) ([2]; gel applied daily for 4 weeks, day 0, 14, 28, FIG. 10): can significantly improve the skin melanin pigmentation
- effect on skin brightness ([2]; gel applied daily for 4 weeks, day 0, 14, 28, FIG. 11): improve the skin brightness
- whitening effect compared with VC, kojic acid, thiamidol, hydroquinone and 377 ([2]; gels applied daily for 4 weeks, FIG. 10 and FIG. 11): significantly better than that of raw materials VC, kojic acid, thiamidol, and hydroquinone currently on the market, but slightly inferior to that of 377
